Source: US11672802B2, “Induction of immune tolerance by using methotrexate” (Genzyme Corporation, priority 2011, dated 2023)

Assays:
anti-rhGAA IgG = assay: Anti-rhGAA IgG ELISA titers in mice treated with rhGAA; type: in vivo; settings: for anti-rhGAA titers: IL-10 knockout animals, rhGAA and methotrexate
Experimental: Recombinant human alglucosidase alfa (rhGAA, marketed by Genzyme Corp. as Myozyme®) was used as a formulated drug product. Mice were treated weekly with 20 mg/kg of rhGAA by bolus tail vein injection unless stated differently. All mice were treated prophylactically with 5 to 30 mg/kg diphenhydramine (Baxter Healthcare Corporation, Deerfield, Ill.) intraperitoneally prior to rhGAA administration. Control animals were treated intravenously with either sterile 0.9% saline or rhGAA-formulation buffer. Methotrexate treatment
Mice were bled 4-6 days following rhGAA treatment and specific IgG was measured by ELISA. […] Endpoint titers were defined as the reciprocal of the sample dilution resulting in an absorbance value of 0.2 using Softmax software (Molecular Devices, Sunnyvale, Calif.).
C57Bl/6 mice were treated with one 20 mg/kg intravenous dose of rhGAA (Genzyme Corporation), 3 consecutive intraperitoneal doses of 5 mg/kg methotrexate (APP Pharmaceuticals, LLC), and either 1D11 or 13C4 at 5 mg/kg (Genzyme Corporation) for 3 doses every other day. Methotrexate, 1D11, and 13C4 treatment commenced with rhGAA injections. Spleens were collected 7 days after treatment initiation and were processed as described above for B cells, culture and flow analysis. Additionally, rhGAA titer data was obtained by treating animals as described above, with rhGAA dosed weekly over 12 weeks, methotrexate dosed for either 1 or 3 cycles, and 1D11 or 13C4 dosed 3 times a week every other day for 12 weeks. Serum samples were collected every 2 weeks for ELISA analysis.

[1] = tested on: circulating and splenic T cells and B cells; assay: Flow cytometry of alemtuzumab-mediated lymphocyte depletion in blood and spleen; type: in vivo, huCD52 Tg mice
Experimental: For splenocyte and lymph node cell preparations single-cell suspensions were generated from harvested mouse spleens or inguinal and mesenteric lymph nodes by homogenization between frosted glass slides into PBS containing 2% FCS. For splenocyte preparations, red blood cells were lysed by 1-2 minute incubation with a red blood cell lysis solution (BD Biosciences, San Diego, Calif.). Blood was isolated by retro-orbital bleeding and cell preparations were performed by lysing red blood cells with red blood cell lysing solution (BD Biosciences) for 20-30 minutes. For all tissue preparations, live cells were enumerated using the ViCell automated counter (Beckman Coulter, Fullerton, Calif.). Following isolation, all cell preparations were washed with PBS/2% FCS prior to use in the assays described below.
For evaluation of cell populations within different tissues, single cell suspensions of the tissues were incubated with fluorochrome-conjugated antibodies that included anti-mouse CD4, CD8, CD25, CD44, CD62L (all antibodies from BD Biosciences or eBioscience, San Diego, Calif.). Intracellular Foxp3 expression analysis was performed according to the anti-Foxp3 manufacturer's protocol (eBiosciences, San Diego, Calif.). Following incubation with the antibodies, cells were washed and analyzed by flow cytometry (FACSCanto, BD Biosciences and FCS Express software, De Novo Software, Los Angeles, Calif.).

anti-alemtuzumab IgG = assay: Anti-alemtuzumab IgG ELISA titers in huCD52 Tg mice
Description: Alemtuzumab-related studies employed human CD52 (huCD52) transgenic (Tg) mice between 6-12 weeks of age that were obtained from Charles River Laboratories/Genzyme Corp. Mice were housed and maintained in accordance with the Guide for Care and Use of Laboratory Animals and under American Association for Accreditation of Laboratory Animals Care I accreditation and all animal protocols used in these studies were approved by the Institutional Animals Care and Use Committee.
Monoclonal antibody alemtuzumab was administered intravenously as either a single injection of 0.5 mg/kg or in either a three or five day cycle of 0.5 mg/kg/day.
Methotrexate (Calbiochem catalog #454125) was administered at 0.5, 1.0, 2.0 or 5 mg/kg by intraperitoneal injection for 1-3 cycles, where each cycle equals either three, six or seven consecutive days of injection depending upon the experiment.
Mice were bled 4-6 days following alemtuzumab treatment and specific anti-alemtuzumab IgG was measured by ELISA. Briefly, 96-well plates (Corning Inc., Corning, N.Y., USA) were coated overnight with 3 μg/ml of alemtuzumab in PBS (pH 7.2). Following blocking with 0.1% BSA in PBS, serial dilutions of serum were added in duplicate to alemtuzumab-coated plates and incubated at 37° C. for 1 h. The plates were washed, and horseradish peroxidase-conjugated goat anti-mouse IgG secondary antibody (Southern Biotechnology Associates, Birmingham, Ala., USA) was added and allowed to incubate for 1 h at 37° C. Following a final wash, TMB substrate (BioFx, Owings Mills, Md., USA) was added and allowed to develop for 15 min at room temperature. The reaction was stopped by the addition of 1 N HCl and absorbance values were read at 450/650 nm on an ELISA plate reader (Molecular Devices, Sunnyvale, Calif., USA). End-point titers were defined as the antilog of the logarithmically transformed sample dilution interpolated at an absorbance value of 0.2 using Excel software (Microsoft, Redmond, Wash., USA).

[2] = methotrexate 1 mg/kg/day, three alemtuzumab treatment cycles

CN(Cc1cnc2nc(N)nc(N)c2n1)c1ccc(C(=O)N[C@@H](CCC(=O)O)C(=O)O)cc1 [methotrexate, Methotrexate]
anti-rhGAA responses (anti-rhGAA IgG; C57BL/6 wild-type, rhGAA and three cycles methotrexate, weeks 4, 6 and 9): decreased | anti-rhGAA titers (anti-rhGAA IgG; week 9): slight decrease | anti-rhGAA titers (anti-rhGAA IgG; weeks 4 and 6): not decreased | duration of control of anti-rhGAA responses (anti-rhGAA IgG; single cycle of three daily doses of 5 mg/kg methotrexate at week 1): at least 20 weeks | animals exhibiting high anti-rhGAA titers (anti-rhGAA IgG; week 6, rhGAA alone, rhGAA + methotrexate, or with 5 mg/kg 1D11 or 13C4): none | depletion of circulating T cells by fifth monthly dose of alemtuzumab ([1]; alemtuzumab alone, or with methotrexate 5 mg/kg daily for first three days): restored the ability of alemtuzumab to deplete T cells | splenic T cell populations ([1]; methotrexate-treated animals, one day following fifth alemtuzumab treatment): significantly depleted | splenic B cell populations, except follicular B cells ([1]; mice treated with alemtuzumab and methotrexate, after fifth alemtuzumab dose): not significantly depleted | effect on marginal zone B cells with alemtuzumab ([1]; spleen, two days following last day of methotrexate treatment): may enhance the depletion of marginal zone B cells | depletion of circulating B cells by fifth monthly dose of alemtuzumab ([1]; with methotrexate 5 mg/kg daily for first three days): enhance the depletion of B cells | reduction of anti-alemtuzumab responses (anti-alemtuzumab IgG; methotrexate 1 mg/kg, single three-dose cycle, five monthly alemtuzumab 0.5 mg/kg): 88% | mice in which titers were controlled (anti-alemtuzumab IgG; [2]): 7 of the 8 | reduction of anti-alemtuzumab titers (anti-alemtuzumab IgG; [2]): 79% | reduction of ADA, area under the effect curves (anti-alemtuzumab IgG; methotrexate 2 mg/kg/day, three alemtuzumab treatment cycles): 98% | reduction of anti-alemtuzumab IgG responses (anti-alemtuzumab IgG; methotrexate 5 mg/kg, single three-dose cycle, five monthly alemtuzumab 0.5 mg/kg): 99% | anti-alemtuzumab antibody titers (anti-alemtuzumab IgG; three daily doses 5 mg/kg/day methotrexate, 24 hours after fifth monthly alemtuzumab dose): reduced
